This passage reports inhibition results from patent publication US10934263B2, “Charged ion channel blockers and methods for use” (Nocion Therapeutics, Inc., priority 2019, dated 2021).

The target in the experiment is T1, NaV1.7 (Homo sapiens, UniProt Q15858).
T1 construct: expressed in transfected cells; tetracycline-inducible, kept under hygromycin and blasticidin
T1 sequence (Q15858 whole entry): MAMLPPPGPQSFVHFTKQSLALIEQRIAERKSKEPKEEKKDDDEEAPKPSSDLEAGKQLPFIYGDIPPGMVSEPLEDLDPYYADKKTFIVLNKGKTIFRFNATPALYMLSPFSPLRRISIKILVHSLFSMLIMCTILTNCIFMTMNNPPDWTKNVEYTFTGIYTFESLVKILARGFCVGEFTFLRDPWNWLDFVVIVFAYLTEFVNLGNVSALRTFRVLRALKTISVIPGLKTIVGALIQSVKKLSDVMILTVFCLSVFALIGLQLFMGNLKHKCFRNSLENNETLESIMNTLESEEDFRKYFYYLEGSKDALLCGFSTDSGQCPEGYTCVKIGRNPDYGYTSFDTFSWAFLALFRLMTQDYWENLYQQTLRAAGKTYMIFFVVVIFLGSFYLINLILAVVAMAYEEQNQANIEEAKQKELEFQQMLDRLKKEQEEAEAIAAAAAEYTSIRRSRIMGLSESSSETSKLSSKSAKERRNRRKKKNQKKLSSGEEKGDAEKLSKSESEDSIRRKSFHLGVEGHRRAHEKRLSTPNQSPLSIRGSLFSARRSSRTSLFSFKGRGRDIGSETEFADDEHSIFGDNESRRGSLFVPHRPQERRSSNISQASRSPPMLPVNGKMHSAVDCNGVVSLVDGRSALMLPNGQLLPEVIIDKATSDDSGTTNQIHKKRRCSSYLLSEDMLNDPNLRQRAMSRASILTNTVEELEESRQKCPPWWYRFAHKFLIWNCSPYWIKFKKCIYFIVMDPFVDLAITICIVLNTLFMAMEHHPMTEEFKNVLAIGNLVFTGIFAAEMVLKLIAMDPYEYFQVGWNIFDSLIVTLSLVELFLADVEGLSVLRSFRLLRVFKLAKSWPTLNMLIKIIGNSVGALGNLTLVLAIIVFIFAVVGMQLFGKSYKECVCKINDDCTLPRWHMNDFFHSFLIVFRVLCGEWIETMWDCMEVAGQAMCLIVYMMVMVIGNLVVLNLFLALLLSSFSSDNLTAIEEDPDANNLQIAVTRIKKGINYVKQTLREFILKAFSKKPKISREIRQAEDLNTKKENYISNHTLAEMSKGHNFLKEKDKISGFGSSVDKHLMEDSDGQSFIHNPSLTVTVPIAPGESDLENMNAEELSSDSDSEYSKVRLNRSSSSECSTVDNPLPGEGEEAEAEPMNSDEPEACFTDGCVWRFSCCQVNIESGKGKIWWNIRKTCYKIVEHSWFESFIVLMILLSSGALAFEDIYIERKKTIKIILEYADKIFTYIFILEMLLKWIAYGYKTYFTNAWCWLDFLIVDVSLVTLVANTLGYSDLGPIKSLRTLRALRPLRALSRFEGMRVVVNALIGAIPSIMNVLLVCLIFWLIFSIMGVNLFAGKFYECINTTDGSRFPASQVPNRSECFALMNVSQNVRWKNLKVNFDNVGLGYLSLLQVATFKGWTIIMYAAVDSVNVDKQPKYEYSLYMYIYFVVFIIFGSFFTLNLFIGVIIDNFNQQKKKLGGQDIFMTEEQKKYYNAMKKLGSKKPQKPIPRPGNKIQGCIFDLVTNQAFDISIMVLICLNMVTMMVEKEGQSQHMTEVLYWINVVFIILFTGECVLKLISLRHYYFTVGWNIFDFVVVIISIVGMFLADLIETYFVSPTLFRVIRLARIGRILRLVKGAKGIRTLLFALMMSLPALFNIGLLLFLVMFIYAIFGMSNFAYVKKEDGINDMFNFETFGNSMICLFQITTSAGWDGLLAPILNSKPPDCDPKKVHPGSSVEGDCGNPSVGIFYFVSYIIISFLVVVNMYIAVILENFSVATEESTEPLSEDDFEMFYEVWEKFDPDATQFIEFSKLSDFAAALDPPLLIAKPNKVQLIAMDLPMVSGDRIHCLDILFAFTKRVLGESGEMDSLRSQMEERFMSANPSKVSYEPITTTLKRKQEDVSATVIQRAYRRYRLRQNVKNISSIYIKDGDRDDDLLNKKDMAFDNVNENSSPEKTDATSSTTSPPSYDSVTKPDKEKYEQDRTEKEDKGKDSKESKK
The experiment can be described thus: Whole cell patch clamp, external block of NaV1.7 current (compound in external solution). It is filed as cell-based. The note with it: % inhibition at test concentration 1,000 μM, compound applied externally; read-out: Nav1.7 Extracellular Inhibition. The procedure:
Representative compounds of the invention were synthesized according to the described methods and tested for the ability to inhibit voltage-gated sodium channels.
NaV1.7 was expressed upon induction with tetracycline. Cells were cultured in DMEM containing 10% dialyzed Fetal Bovine Serum (VWR, Radnor, Pa.), 1% Glutamax (VWR, Radnor, Pa.), 1% Penicillin-Streptomycin (VWR, Radnor, Pa.), 100 mg/L Hygromycin (Thermo Fisher Scientific, Waltham, Mass. and 5 mg/L Blasticidin (Alfa Aesar, Haverhill, Mass.). Cells were grown and maintained at 37° C. in a humidified environment containing 10% CO2 in air. Cells were detached from the culture flask for passage and harvested using 0.05% Trypsin-EDTA (Thermo Fisher Scientific, Waltham, Mass.). To induce NaV1.7, cells were induced with tetracycline (0.1-1 μg/mL, IBI Scientific, Peosta, Iowa) the day before recording and plated onto 24-well plates. Cells were washed with DPBS (VWR, Radnor, Pa.), trypsinized and then triturated five times in 10 mL of growth media to break apart cell aggregates. For one 24-well plate, 2 mL of cell suspension was mixed with 23 mL of fresh growth media and 0.1-1 μg/mL tetracycline added. 1 ml of mixed media with cells was then added to each well of a 24-well plate, with a 12 mm coverslip already placed in the bottom of the well. Cells were then incubated in 37° C. and 10% CO2 overnight.
The intracellular solution contained the following (in mM) CsCl 135, NaCl 10, EGTA 10, HEPES 10, MgCl2 2, adjusted to pH 7.2 with CsOH. The external solution was a normal Ringer solution containing (in mM) NaCl 155, HEPES 10, glucose 10, KCl 3.5, CaCl2 1.5, MgCl2 1 adjusted to pH 7.4 with NaOH. CsCl is from Alfa Aesar, Haverhill, Mass. All other chemicals are from Sigma-Aldrich, St. Louis, Mo. In order to test the degree of internal block by test compounds the compounds were dissolved in internal solution at the indicated test concentration. […] In order to test the degree of external block by test compounds the compounds were dissolved in external solution at the indicated test concentration.
18-24 hours after cells were induced with tetracycline, coverslips were placed into a chamber filled with Normal Ringer solution at room temperature and the chamber placed on a microscope. Pipettes were pulled from borosilicate glass on a P97 puller (Sutter Instrument, Novato, Calif.) and polished with a MF-830 Microforge (Narishige International USA, Inc, Amityville, N.Y.) to have a resistance of 1.5-2.5 MΩ when filled with CsCl internal solution at room temperature. Healthy cells (those that are round and translucent with no visible blemishes) were chosen for seal formation. A seal was formed between the pipette and the cell, and a brief pulse of suction was used to “break in” and establish the whole-cell configuration. The membrane potential was held at −100 mV before the voltage protocol began. Only cells with series resistance between 1.5-5 MΩ were retained for analysis. The voltage protocol was as follows: Cells were held at −100 mV for 12 ms followed by a hyperpolarizing step to −105 mV for 12 ms to monitor the leak. Cells were then stepped back to −100 mV for 40 ms. Cells were then depolarized to −20 mV for 10 ms and then returned to −100 mV for 26 ms.
Once the recording was started, the voltage protocol was run at 30 second intervals for 5 minutes to get a stable baseline. This is followed by 5 Hz stimulation of the same voltage protocol run until the end of experiment. […] The test compound is added for 5 minutes before washing out with normal Ringer's solution. Currents were recorded using PatchMaster software with Heka EPC10 (HEKA Electronics, Lambrecht, Germany). Only cells with inward current amplitudes at −20 mV between 400 pA and 4 nA were accepted. In addition, cells having leak currents greater than 10% of their current amplitudes were discarded. […]
On to `CCOC(=O)Cn1cc(C)c[n+]1CC(=O)Nc1c(C)cccc1C` [Compound 76], for which the inhibition at 1000 µM was below 40%.

With `CCOC(=O)CCCn1ccc[n+]1CC(=O)Nc1c(C)cccc1C` [Compound 75], the inhibition at 1000 µM is below 40%.

For `Cc1cccc(C)c1NC(=O)Cn1ccc[n+]1CC(=O)Nc1c(C)cccc1C` [Compound 109], the inhibition at 1000 µM is below 40%.
